What was measured:
Homo sapiens [1] = experiment: Neurotoxicity in febrile neutropenic patient assessed as myoclonia at 2 g administered as 30 mins infusion every 8 hrs; type: toxicity, organism-based; settings: in vivo, iv
Homo sapiens [2] = experiment: Neurotoxicity in febrile neutropenic patient assessed as hallucinations at 2 g administered as 30 mins infusion every 8 hrs; type: toxicity, organism-based; settings: in vivo, iv
Homo sapiens [3] = experiment: Neurotoxicity in febrile neutropenic patient assessed as confusion at 2 g administered as 30 mins infusion every 8 hrs; type: toxicity, organism-based; settings: in vivo, iv
[4] = Cmin in febrile neutropenic patient with neurological disorder at 2 g administered as 30 mins infusion every 8 hrs measured after 4 days by HPLC analysis; type: ADME, organism-based; settings: human, in vivo, iv, read-out: Cmin
[5] = Cmin in febrile neutropenic patient with GFR of <40 ml/min at 2 g administered as 30 mins infusion every 8 hrs measured after 4 days by HPLC analysis; type: ADME, organism-based; settings: human, in vivo, iv, read-out: Cmin

concentration at 4 days [4]: 28000 ng/mL
concentration at 4 days [5]: 11400 ng/mL
Structure (SMILES): CO/N=C(\C(=O)N[C@@H]1C(=O)N2C(C(=O)[O-])=C(C[N+]3(C)CCCC3)CS[C@H]12)c1csc(N)n1 [CEFEPIME]
Activity (Homo sapiens [1]): Toxic
Activity (Homo sapiens [2]): Toxic
Activity (Homo sapiens [3]): Toxic
